Source: US10190104B2, “Isoform of anaplastic lymphoma kinase and its uses” (Memorial Sloan-Kettering Cancer Center, priority 2014, dated 2019)

Tested on: ALK-transformed Ba/F3 cells
Experiment: Cell viability assay of Ba/F3 cells expressing ALK isoforms treated with ALK inhibitors
Type: cell-based, murine
Details: cell viability after 72 hours; for IL-3-independent growth of ALK-transformed Ba/F3 cells: absence of IL-3, CellTiter-Glo; for growth in the presence of IL-3: presence of IL-3 (1 ng/ml)
Procedure: Ba/F3 cells were stably transduced with MSCV-ALK^variant-IRES-GFP constructs with a multiplicity of infection (MOI) of ˜0.26. Based on the MOI calculations, ˜78% of cells were uninfected, ˜20% of cells were infected with one virus particle, and ˜2% of cells were infected by more than one viral particle. Stably transduced Ba/F3 cells were cultured in RPMI medium supplemented with IL-3 (1 ng ml-1) and the transduction rate of 20% was validated using flow cytometry for GFP, that was co-expressed with the ALK variants. For the cell proliferation assay, transduced Ba/F3 cells were transferred into IL-3 depleted RPMI medium and cell growth was quantified every 2-4 days with a luminescence assay (#G7571, Promega). […] All drugs were suspended in DMSO. The cell viability was assessed after 72 hours by a luminescence assay CellTiter-Glo (#G7571, Promega). Results were normalized to growth of cells in a medium containing an equivalent volume of DMSO. The inhibition curve was determined with GraphPad Prism 6.0 software using the ‘log(inhibitor) vs. response variable slope’ non-linear regression model.

COc1cc(N2CCC(N3CCN(C)CC3)CC2)ccc1Nc1ncc(Cl)c(Nc2ccccc2S(=O)(=O)C(C)C)n1 [TAE-684, NVP-TAE684]
IL-3-independent growth of ALK-transformed Ba/F3 cells: effectively inhibited | growth in the presence of IL-3: no effect

Cc1cc(Nc2ncc(Cl)c(Nc3ccccc3S(=O)(=O)C(C)C)n2)c(OC(C)C)cc1C1CCNCC1 [ceritinib]
IL-3-independent growth of ALK-transformed Ba/F3 cells: effectively inhibited | growth in the presence of IL-3: no effect
